Results on one compound are retold here after patent US20060135510A1 (The Trustees of the University of Pennsylvania, priority 2004, published 2006).

One data set relates to A549. Description: Clonogenic assay, radiation sensitization of A549 cells. Type of data set: cell-based. Particulars: control SF2 0.570 +/− 0.042. The procedure:
(§1) Cultures of cells in log growth phase were counted and plated in 60-mm dishes containing 4 ml of media. […] Cells were irradiated with a Mark I cesium irradiator (J. L. Shepherd, San Fernando, Calif.) at a dose rate of 1.6 Gy/min. Colonies were stained and counted 10-14 days after irradiation. A light box was used to assist in counting colonies. The surviving fraction was calculated by dividing the number of colonies formed by the number of cells plated times plating efficiency (Table 1). Each point value represents the mean surviving fraction from at least six replicate dishes.

The test system of a further data set is REF. Description: Clonogenic assay, radiation sensitization of REF cells. Type of data set: cell-based. Particulars: control SF2 0.408 +/− 0.040. How it is done:
as §1

In a further data set the test system is T24. Description: Clonogenic assay, radiation sensitization of T24 cells. The data set is classed as cell-based, human. Particulars: control SF2 0.560 +/− 0.061. The procedure:
as §1

A further data set deals with MIAPACA2. Description: Clonogenic assay, radiation sensitization of MIAPACA2 cells. The data set is classed as cell-based. To be noted: control SF2 0.906 +/− 0.086. How it is done:
as §1

The test system of another data set is Akt. Description: Western blot analysis of Akt phosphorylation in SQ20B cells. The data set is classed as cell-based, human. How it is done: Using Western blot analysis, a human head-and-neck cancer cell line, SQ20B, (American Type Culture Collection; Manassas, Va.) containing a constitutively-active EGFR receptor and thus, increased signaling through PI3K, was examined for Akt phosphorylation.
Cells were lysed without trypsinization by rinsing culture dishes once with PBS followed by lysis with reducing Laemeli sample buffer. Samples were boiled, sheared, and clarified by centrifugation and stored at −20° C. […] Membranes were blocked in PBS containing 0.1% Tween-20 and 5% powdered milk before primary antibody addition. The dilution of the primary antibody was 1:2000. Antibody binding was detected using the ECL chemiluminescence kit (Amersham, Arlington Heights, Ill.). Images were digitized using an Arcus II scanner, and figures were assembled using Adobe Photoshop 3.0 and Microsoft Power Point programs.
(In general: In western blotting, separated proteins are transferred to a membrane and probed.)

For data set [1] the following is noted: Amprenavir by pump + 8 Gy vs 8 Gy alone, right hind leg.
Another data set has as its system SQ20B cells. The data set can be described thus: Clonogenic assay, radiosensitization of SQ20B cells. Type of data set: cell-based, human. The procedure:
Cultures in log growth phase were counted and plated in 60-mm dishes containing 4 ml of media. The cells were allowed to attach and inhibitors were added to cultures at least one hour prior to radiation. Cells were irradiated with a Mark I cesium irradiator (J. L. Shepherd, San Fernando, Calif.) at a dose rate of 1.6 Gy/min. Colonies were stained and counted 10-14 days after irradiation. Typically, at least 6 dishes are prepared at each dose level of radiation.
as §1

A further data set has as its system SQ20B xenograft tumors. The data set can be described thus: In vivo to in vitro clonogenic assay in nude mice with SQ20B tumors. The arrangement: species or system mouse. To be noted: osmotic pump placed 2 days prior, 8 Gy, FIG. 11. The procedure:
The mice in the study had SQ20B xenograft tumors on a hind leg. The pump was placed into the mouse 2 days prior to experiment. On the day of the experiment, the mouse was anesthetized and irradiated to 8 Gy. The tumor was then harvested and a cell suspension made. The cells were plated and the plating efficiency determined to indicate the number of cells that were viable and able to reproduce by forming colonies in each individual group (plating efficiency).
FIG. 8 illustrates the results of an in vivo to in vitro clonogenic assay in nude mice with SQ20B tumors.

For data set [2] the following is noted: dose of about 1200 mg bid; cited from earlier work.

Consider `CC(C)CN(C[C@@H](O)[C@H](Cc1ccccc1)NC(=O)O[C@H]1CCOC1)S(=O)(=O)c1ccc(N)cc1` [Amprenavir, amprenavir], for which the “Amprenavir SF2” value is given as 0.487 +/− 0.030 in the data set on A549; 0.402 +/− 0.136 in the data set with REF; 0.370 +/− 0.022 in the data set on T24; 0.664 +/− 0.051 with MIAPACA2; 0.432 +/− 0.017 in the data set with SQ20B cells (SQ20B, control SF2 0.691 +/− 0.042). In the data set on Akt (FIG. 4, SQ20b cells and T24 cells), the “signaling in the Ras pathway” value is reported as “inhibits”. The “phosphorylation of Akt at Ser 473” value is on record as “down-regulation” in the data set on Akt (SQ20B cells, 10 μM Amprenavir, Western blot); “abolished” in the data set with Akt (SQ20B cells, 20 μM Amprenavir, Western blot (FIG. 3 and FIG. 5)). Besides, the “phosphorylation of Akt at the Thr 308 site” value in the data set with Akt (SQ20B cells, 10 μM or 20 μM Amprenavir) is “no change”. Besides, in data set [1], the “leg contracture or fibrosis” value is on record as “No differences”. Moreover, the “survival difference in cell kill numbers” value in the data set on SQ20B cells (30 fractions of 2 Gy, SF2 0.51 vs 0.7) is listed as approximately 4 log. For the same compound, the “surviving fraction after 2 Gy (SF2)” value in the data set on SQ20B cells (SQ20B cells, 5 μM Amprenavir + 2 Gy radiation, control 70% (FIG. 6)) is 51%. Besides, the “survival value after 30 fractions of 2 Gy” value in the data set with SQ20B cells (calculated from SF2 0.51, without drug 2.25×10^−5) is on record as 1.68×10^−9. The “cell kill, combination of radiation and Amprenavir” value is “increase cell kill” with SQ20B cells (clonogenic assay in vitro, FIG. 7) and “significant increase in cell kill” in the data set on SQ20B xenograft tumors. In addition, the peak plasma concentration in data set [2] is 15.1 µM. Further, the trough plasma concentration in [2] was 0.63 µM.
